Where “and” joins values, the source holds several entries; their conditions need not be identical. Identical values can stand only once.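 Five compound concentrations were applied to cells in 96-well plates for 48 hours; endpoints were derived by simple linear interpolation of the resulting dose-response curve. Abbreviation: GI50, concentration required for 50% inhibition of growth. The concentration for full growth arrest is given as TGI.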 Bounds are passed on as bounds.

Holding throughout (assay): NCI anticancer screen, dose series, 48 h
Test [1] relates to SN12C renal.
In test [2] the test system is M14 melanoma.
Test [3] relates to HCT-116 colon.
For test [4], the system named is K-562 leukemia.
The subject of test [5] is MDA-MB-231 breast.
Test [6] deals with ACHN renal.
For test [7], the system named is SK-MEL-28 melanoma.
In test [8] the test system is UACC-257 melanoma.
The test system of test [9] is SF-295 CNS.
In test [10] the test system is OVCAR-5 ovarian.
The subject of test [11] is A549 NSCLC.

With `c1ccc2c3[nH]c(c2c1)=Nc1ccc(cc1)-c1nc2ccc(cc2o1)N=c1[nH]c(c2ccccc12)=Nc1ccc2nc(oc2c1)-c1ccc(cc1)N=3`, the TGI in [1] is greater than 100 µM; in test [2] it was greater than 100 µM; in test [3] it was greater than 100 µM; in [4], 51.5 µM; in test [5] it was greater than 100 µM; in test [6] it was 35.5 µM. Also, the TGI in test [7], in test [8], in test [9], in test [10] and in [11] was greater than 100 µM throughout.
`CC(NC(=O)c1c(O)[nH]c(=S)[nH]c1=O)c1ccc([N+](=O)[O-])cc1` (configuration not stated): the TGI in test [1], in test [2], in test [3], in [4], in [5] and in test [6] was greater than 100 µM each time. Further, the TGI in [7], in [8], in [9], in test [10] and in test [11] was greater than 100 µM each time.
As for `C/C=C\C(CC(=O)NCC(=O)c1c[nH]c2ccccc12)CC(=O)OC` (configuration not stated), the TGI in [2], in test [3], in test [4], in test [5], in [6] and in test [7] was greater than 100 µM each time. Moreover, the TGI in test [8], in test [9], in test [10] and in test [11] was greater than 100 µM each time.
For `NCCCN(CCCN)CCc1cn(C(=O)c2ccccc2)cn1`, the TGI in [1] was 26.2 µM; in test [2] it was 18.1 µM; in [3] it was greater than 51.2 µM; in [4], greater than 37.4 µM; in test [5] it was 28.8 µM; in test [6], 19.2 µM. Besides, the TGI in test [7] was determined as 33.2 µM; in test [8] it was 25.2 µM; in test [9], 30.7 µM; in test [10], 33.4 µM; in [11] it was 26.7 µM.
For `CCOP(=O)(OCC)/C(C#N)=C/c1ccc(-c2cc(C(F)(F)F)cc(C(F)(F)F)c2)o1`, the TGI in test [1] stood at 29.1 µM; in [2], 23.1 µM; in test [3], 26.2 µM; in test [4], 13.8 µM; in [5], 26.8 µM; in test [6], 50.2 µM. Also, the TGI in test [7] was 33 µM; in test [8], 30.6 µM; in test [9], 11.8 µM; in [10], 26.1 µM; in test [11], 31.3 µM.
As for `CCOC(=O)C(NC(=O)c1ccccc1)(N1CCN(c2cc3c(cc2F)c(=O)c(C(=O)O)cn3C2CC2)CC1)C(F)(F)F` (configuration not stated), the TGI in [1] was 79.3 µM; in test [2], 40.7 µM; in test [3], 31.6 µM; in test [4], 46.6 µM; in test [5] it was 31 µM; in test [6] it was 58.9 µM. The TGI in test [7] is 74.6 µM; in [9], 87.9 µM; in test [10], 40.5 µM; in test [11], greater than 100 µM.
As for `Oc1c(Br)ccc2cccnc12`, the TGI in test [1] is greater than 100 µM; in test [2] it was greater than 32.5 µM; in [3], greater than 100 µM; in test [4] it was greater than 31.4 µM; in [5], 24.7 µM; in test [6], 55.8 µM. Further, the TGI in test [7] was greater than 100 µM; in test [9], 14.9 µM; in test [10] it was greater than 100 µM; in test [11], greater than 100 µM.
On to `O=Cc1ccc(-c2ccc(-c3ccc(CO)s3)o2)s1`, for which the TGI in test [1] was greater than 88.8 µM; in test [2] it was greater than 70.6 µM; in test [3], greater than 40.1 µM; in test [4], greater than 22.2 µM; in test [5], greater than 80.3 µM; in test [6], greater than 100 µM. Also, the TGI is greater than 80.1 µM in test [7], 0.506 µM in test [8], greater than 87.9 µM in [9] and 98.8 µM in test [11].
With `CC(=O)c1ccc2c(c1)C(=O)c1sc(C(C)=O)cc1C2=O`, the GI50 in [1] was 0.953 µM; in test [3], 0.349 µM; in test [4], 0.264 µM; in [5], 0.521 µM; in test [6], 0.405 µM; in test [7], 1.85 µM. In addition, the GI50 in test [9] is 1.56 µM; in test [10] it was 1.87 µM. In addition, the TGI was 2.18 µM and 4.76 µM in test [1]; 2.21 µM in [2]; 14.3 µM and 12.3 µM in test [3]; 50 µM and > 100 µM in test [4]; 3.75 µM and 7.75 µM in test [5]; 1.54 µM and 1.5 µM in [6]. The TGI in [7] was 14.2 µM and 3.61 µM; in test [9], 1.84 µM and 3 µM; in test [10], 2.36 µM and 3.92 µM; in test [11], 9.41 µM and 7.41 µM.
Turning to `OC(C/C=N/N=C/CC(O)(C(F)(F)Cl)C(F)(F)Cl)(C(F)(F)Cl)C(F)(F)Cl`, the TGI in test [1], in [2], in test [3], in [4], in [5] and in test [6] was greater than 10 µM each time. In addition, the TGI in test [7], in test [8], in [9] and in test [11] was greater than 10 µM in each case.
Take `CS(=O)(=O)N1CC(CCl)c2ccc(O)cc21` (configuration not stated): the TGI in test [1] is 14.5 µM; in [3], 11.1 µM; in [4], greater than 100 µM; in [5] it was 6.16 µM; in test [6], 12.4 µM; in test [7], 14.2 µM. Also, the TGI was determined as 5.95 µM in [8], 11.6 µM in test [9], 16.3 µM in [10] and 11.1 µM in test [11].
On to `COc1ccc(N2C(=O)C(=O)N(c3ccc(N=Nc4ccccc4)cc3)C2=S)cc1`, for which the TGI in [1] was 33.2 µM; in test [3], 35.2 µM; in [4], greater than 100 µM; in test [5], 41.5 µM; in test [6], 34.4 µM; in test [7], 41.2 µM. Moreover, the TGI in [8] was 34.3 µM; in test [9], 35.4 µM; in [10], 44.6 µM; in test [11] it was 41.2 µM.

(Values after PubChem BioAssay (NCI).)
